“And” between values parts separate entries of the source, which are not always exact repeats. Identical values can stand only once.
Legend:
[1] = test system: HCT8-E11 colon carcinoma cells; assay: SRB test, HCT8-E11; assay type: cell-based, human
Protocol: (§1) The SRB assay is used to evaluate growth effects on cells, and measures the total protein content. In this test, 5,000 cells are seeded in a cup of a 96-well plate. Upon a 24 h-attachment period, cells are treated with a certain amount of the test molecule (dissolved in DMSO). After a pre-chosen incubation time, cells are fixed with 50 μL of 50% trichloroacetic acid (2° C., 1 h). Afterward, the plate is rinsed five times with tap water, and air dried overnight.
(§2) Next, proteins are stained with 75 μL of a 0.4% solution of SRB in AcOH (30 min). Unbound SRB is subsequently removed by washing with a 1% solution of glacial AcOH, whereupon the plate is air dried. Then, bound SRB is redissolved in 100 μL of a 10 mmol·L^−1 tris(hydroxymethyl)aminomethane (Tris) buffer (pH=10.5), after which optical density is determined at 490 nm with a spectrophotometer.
In order to verify whether the antiproliferative effects of compound 49, witnessed in BLM and MCF-7/6 cells at high concentrations, were cell specific, additional SRB and MTT assays on a further five cell lines (HCT8-E11, TR146, FaDu, 3T3-L1 and CT5.3) were conducted (FIG. 8). The results for MCF-7/6 cells were added to facilitate comparison.
The CT5.3 cell line consists of human myofibroblasts which were isolated from a colon tumor (Van Hoorde et al., 1999). […]

BLM cells = assay: Matrigel invasion assay; assay type: cell-based; settings: for Number of invasive BLM-cells found at the basolateral side of the filter: 24 h, samples 1 and 2
Description: An interesting method to determine the invasive capacity of cells and the anti-invasive potential of different substances is the matrigel invastion assay. Matrigel can be considered to be a basal membrane and is obtained from mice EHS sarcomas (tumors having an abundant expression of extracellular matrix proteins). The primary component of a matrigel is laminin, further also including collagen IV, heparan, sulphate proteoglycans and growth factors. It is also important that matrix degrading enzymes and inhibitors are present.
At room temperature, matrigel polymerizes into a matrix which mimicks a basal membrane of breast cells. The behavior of cells towards a matrigel highly resembles the in vivo situation and therefore this test is acknowledged to be an appropriate approach to the study migration and invasion, and the role of ECM receptors and matrix degrading enzymes in these processes.
In particular for this example, test cells were placed on a matrigel layer in serum-free medium. Subsequently, said cells were allowed to invade into the matrigel layer upon which they move through a filter, and attach to the bottom of said filter. The migration of the cells is stimulated by the presence of conditioned medium, at the other side of the filter, which act as a chemoattractant for the cells.
50 μl matrigel (+/−3 mg/ml serum-free DMEM) was applied in the apical compartment (upper chamber) of 24-well plate inserts having a pore size of 8 μm. After 1 h of polymerization (37° C.) 50.000 BLM cells (in 150 μl serum-free DMEM) were seeded and incubated with varying concentrations of compound 49 (0-100 μM). In the basolateral compartment (lower chamber), 700 μl conditioned medium, containing the same concentration of compound 49 as used in the apical compartment was applied as a chemo-attractant for the cells. The plates were incubated for 24 h at 37° C. and the matrigel and cells at the apical side were removed using wetted cotton swabs (PBSD-). The filters were washed twice on both sides with PBSD- and subsequently incubated for 10 min in ice-cold methanol to fix the cells. To quantify the number of migrated cells, the filters were incubated for 15 min with DAPI and subsequently washed 4×5 min with PBSD-. The filters were then mounted on coverslips and the number of migrated cells was determined for each concentration of compound 49 using a fluorescence microscope.

MCF-7/6 cells = assay: Sulforhodamine B (SRB) test, MCF-7/6; assay type: cell-based, human
Protocol: as §1, §2
Besides, also an SRB assay was performed. This test is based on the ability of the dye sulforhodamine B (SRB) to bind electrostatically on basic amino acid residues of protein in trichloroacetic acid-fixed cells. Results obtained in the SRB assay are linearly proportional to the amount of cellular protein and thus to the cell number.

MCF-7/LucF5 cells = assay: SRB test, MCF-7/LucF5; assay type: cell-based, human
Protocol: as §1, §2
In order to further validate the use of the MCF-7/LucF5 cells in our in vivo experiments, the effects of 4-fluoro-3′,4′,5′-trimethoxychalcone on this cell line in the MTT and SRB assays were determined as well (Van Hoorde L. et al., 1999).

[2] = 10 μmol·L−1, 24 h, decreasing trend, not significant
[3] = elevated concentrations 10-100 μmol·L−1, summary

`COc1cc(C(=O)/C=C/c2ccc(F)cc2)cc(OC)c1OC` [Compound 49, (2E)-3-(4-Fluorophenyl)-1-(3,4,5-trimethoxyphenyl)propenone] was tested, and the “change in total protein content” value [1, 2] was −27%, the “reduction in total protein content” value [1, 3] was roughly 50% and the “reduction of the number of invasive cells” value (BLM cells; 0.1 μM) was 80%. For the same compound, the “reduction of the number of invasive cells” value (BLM cells; 1 μM) was 67%, the “Number of invasive BLM-cells found at the basolateral side of the filter” value (BLM cells; 1 μM) was 282 and 160 and the “reduction of the number of invasive cells” value (BLM cells; 10 μM) was 93%. The “Number of invasive BLM-cells found at the basolateral side of the filter” value (BLM cells; 10 μM) was 57 and 33, the “reduction of the number of invasive cells” value (BLM cells; 100 μM) was 98% and the number of cells (MCF-7/6 cells; 1 μmol·L−1, FIG. 6) was “smaller but still significant reduction”. For the same compound, the “change in total protein content” value (MCF-7/6 cells; [2]) was −10%, the “total protein content relative to solvent control” value (MCF-7/6 cells; 100 and 10 μmol·L−1, FIG. 6 (72 and 144 h), p<0.01) was “significant reduction” and the “reduction in total protein content” value (MCF-7/6 cells; [3]) was roughly 50%. For the same compound, the cell count (MCF-7/LucF5 cells; 1 and 0.1 μmol·L−1, 72 h (p=0.0703 and 0.0538)) was “marginally significant reduction”, the total protein content (MCF-7/LucF5 cells; 100 or 10 μmol·L−1, 72 h (p=0)) was “significant reduction” and the “reduction in total protein content” value (MCF-7/LucF5 cells; [3]) was roughly 50%.

From patent publication US9290427B2, “Anti-invasive compounds” (Universiteit Gent, priority 2012, dated 2016)
